Measured values: ChEMBL document CHEMBL4819051, “Synthesis and antifungal activity of new hybrids thiazolo[4,5-d]pyrimidines with (1H-1,2,4)triazole” (Bioorg Med Chem Lett, 2021)
In brackets after ≈: the same amount, converted by molar mass. One block for each compound: values may come before it.

Tests used:
[1] = 1-octanol/aqueous buffer distribution coefficient, logP of the compound at pH 7.4; type: physicochemical
[2] = test system: Aspergillus niger; experiment: Antifungal activity against Aspergillus niger 37a assessed as reduction in fungal growth incubated for 24 hrs by CLSI based serial microbroth dilution method; type: functional
[3] = test system: Candida tropicalis; experiment: Antifungal activity against Candida tropicalis 3019 assessed as reduction in fungal growth incubated for 48 hrs by CLSI based serial microbroth dilution method; type: functional
[4] = test system: Candida albicans; experiment: Antifungal activity against Candida albicans 8R assessed as reduction in fungal growth incubated for 48 hrs by CLSI based serial microbroth dilution method; type: functional
[5] = test system: Pichia kudriavzevii; experiment: Antifungal activity against Candida krusei 432M assessed as reduction in fungal growth incubated for 24 hrs by CLSI based serial microbroth dilution method; type: functional
[6] = test system: Candida albicans; experiment: Antifungal activity against Candida albicans 604M assessed as reduction in fungal growth incubated for 24 hrs by CLSI based serial microbroth dilution method; type: functional
[7] = test system: Trichophyton rubrum; experiment: Antifungal activity against Trichophyton rubrum 2002 assessed as reduction in fungal growth incubated for 24 hrs by CLSI based serial microbroth dilution method; type: functional
[8] = test system: Candida albicans; experiment: Antifungal activity against Candida albicans ATCC 24433 assessed as reduction in fungal growth incubated for 48 hrs by CLSI based serial microbroth dilution method; type: functional
[9] = test system: Trichophyton rubrum; experiment: Antifungal activity against Trichophyton rubrum 2002 assessed as reduction in fungal growth incubated for 48 hrs by CLSI based serial microbroth dilution method; type: functional
[10] = test system: Candida albicans; experiment: Antifungal activity against Candida albicans CBS 8837 assessed as reduction in fungal growth incubated for 48 hrs by CLSI based serial microbroth dilution method; type: functional
[11] = test system: Microsporum canis; experiment: Antifungal activity against Microsporum canis B-200 assessed as reduction in fungal growth incubated for 48 hrs by CLSI based serial microbroth dilution method; type: functional
[12] = test system: Nakaseomyces glabratus; experiment: Antifungal activity against Candida glabrata 61L assessed as reduction in fungal growth incubated for 24 hrs by CLSI based serial microbroth dilution method; type: functional
[13] = test system: Nakaseomyces glabratus; experiment: Antifungal activity against Candida glabrata 61L assessed as reduction in fungal growth incubated for 48 hrs by CLSI based serial microbroth dilution method; type: functional
[14] = test system: Candida parapsilosis; experiment: Antifungal activity against Candida parapsilosis ATCC 22019 assessed as reduction in fungal growth incubated for 48 hrs by CLSI based serial microbroth dilution method; type: functional; conditions: Lodderomyces parapsilosis
[15] = test system: Microsporum canis; experiment: Antifungal activity against Microsporum canis B-200 assessed as reduction in fungal growth incubated for 24 hrs by CLSI based serial microbroth dilution method; type: functional
[16] = test system: Pichia kudriavzevii; experiment: Antifungal activity against Candida krusei 432M assessed as reduction in fungal growth incubated for 48 hrs by CLSI based serial microbroth dilution method; type: functional
[17] = test system: Aspergillus niger; experiment: Antifungal activity against Aspergillus niger 37a assessed as reduction in fungal growth incubated for 48 hrs by CLSI based serial microbroth dilution method; type: functional
[18] = test system: Candida tropicalis; experiment: Antifungal activity against Candida tropicalis 3019 assessed as reduction in fungal growth incubated for 24 hrs by CLSI based serial microbroth dilution method; type: functional
[19] = test system: Cyberlindnera jadinii; experiment: Antifungal activity against Candida utilis 84 assessed as reduction in fungal growth incubated for 48 hrs by CLSI based serial microbroth dilution method; type: functional; conditions: Williopsis jadinii
[20] = test system: Cyberlindnera jadinii; experiment: Antifungal activity against Candida utilis 84 assessed as reduction in fungal growth incubated for 24 hrs by CLSI based serial microbroth dilution method; type: functional; conditions: Williopsis jadinii
[21] = test system: Candida albicans; experiment: Antifungal activity against Candida albicans 8R assessed as reduction in fungal growth incubated for 24 hrs by CLSI based serial microbroth dilution method; type: functional
[22] = test system: Candida parapsilosis; experiment: Antifungal activity against Candida parapsilosis ATCC 22019 assessed as reduction in fungal growth incubated for 24 hrs by CLSI based serial microbroth dilution method; type: functional; conditions: Lodderomyces parapsilosis
[23] = test system: Cryptococcus neoformans; experiment: Antifungal activity against Cryptococcus neoformans assessed as reduction in fungal growth incubated for 48 hrs by CLSI based serial microbroth dilution method; type: functional
[24] = test system: Candida albicans; experiment: Antifungal activity against Candida albicans ATCC 24433 assessed as reduction in fungal growth incubated for 24 hrs by CLSI based serial microbroth dilution method; type: functional
[25] = test system: Cryptococcus neoformans; experiment: Antifungal activity against Cryptococcus neoformans assessed as reduction in fungal growth incubated for 24 hrs by CLSI based serial microbroth dilution method; type: functional
[26] = test system: Candida albicans; experiment: Antifungal activity against Candida albicans 604M assessed as reduction in fungal growth incubated for 48 hrs by CLSI based serial microbroth dilution method; type: functional
[27] = test system: Candida albicans; experiment: Antifungal activity against Candida albicans CBS 8837 assessed as reduction in fungal growth incubated for 24 hrs by CLSI based serial microbroth dilution method; type: functional

SMILES: O=c1c2sc(=S)n(-c3ccc(F)cc3)c2ncn1CC(O)(Cn1cncn1)c1ccc(F)cc1F (stereo not drawn)
logD [1]: 0.47

SMILES: Cc1ccc(-n2c(=S)sc3c(=O)n(CC(O)(Cn4cncn4)c4ccc(F)cc4F)cnc32)cc1 (stereo not drawn)
logD [1]: 0.79

SMILES: O=c1c2sc(=S)n(-c3ccc(Cl)cc3)c2ncn1CCCN1CCN(CC(O)(Cn2cncn2)c2ccc(F)cc2F)CC1 (stereo not drawn)
MIC [2]: 32 µg/mL (≈ 48.5 µM)
MIC [3]: 8 µg/mL (≈ 12.1 µM)
MIC [4]: 32 µg/mL (≈ 48.5 µM)
MIC [5]: 16 µg/mL (≈ 24.3 µM)
MIC [6]: 32 µg/mL (≈ 48.5 µM)
MIC [7]: 16 µg/mL (≈ 24.3 µM)
MIC [8]: 32 µg/mL (≈ 48.5 µM)
MIC [9]: 16 µg/mL (≈ 24.3 µM)
MIC [10]: 32 µg/mL (≈ 48.5 µM)
MIC [11]: 32 µg/mL (≈ 48.5 µM)
MIC [12]: 2 µg/mL (≈ 3.03 µM)
MIC [13]: 32 µg/mL (≈ 48.5 µM)
MIC [14]: 0.25 µg/mL (≈ 0.379 µM)
MIC [15]: 32 µg/mL (≈ 48.5 µM)
MIC [16]: 32 µg/mL (≈ 48.5 µM)
MIC [17]: 32 µg/mL (≈ 48.5 µM)
MIC [18]: 8 µg/mL (≈ 12.1 µM)
MIC [19]: 2 µg/mL (≈ 3.03 µM)
MIC [20]: 2 µg/mL (≈ 3.03 µM)
MIC [21]: 32 µg/mL (≈ 48.5 µM)
MIC [22]: 0.25 µg/mL (≈ 0.379 µM)
MIC [23]: 32 µg/mL (≈ 48.5 µM)
MIC [24]: 16 µg/mL (≈ 24.3 µM)
MIC [25]: 32 µg/mL (≈ 48.5 µM)
MIC [26]: 32 µg/mL (≈ 48.5 µM)
MIC [27]: 16 µg/mL (≈ 24.3 µM)

SMILES: Cc1ccc(-n2c(=S)sc3c(=O)n(CCCN4CCN(CC(O)(Cn5cncn5)c5ccc(F)cc5F)CC4)cnc32)cc1 (stereo not drawn)
MIC [2]: 32 µg/mL (≈ 50.1 µM)
MIC [3]: 16 µg/mL (≈ 25 µM)
logD [1]: 4.1
MIC [4]: 32 µg/mL (≈ 50.1 µM)
MIC [5]: 16 µg/mL (≈ 25 µM)
MIC [6]: 32 µg/mL (≈ 50.1 µM)
MIC [7]: 32 µg/mL (≈ 50.1 µM)
MIC [8]: 32 µg/mL (≈ 50.1 µM)
MIC [9]: 32 µg/mL (≈ 50.1 µM)
MIC [10]: 32 µg/mL (≈ 50.1 µM)
MIC [11]: 32 µg/mL (≈ 50.1 µM)
MIC [12]: 2 µg/mL (≈ 3.13 µM)
MIC [13]: 32 µg/mL (≈ 50.1 µM)
MIC [14]: 0.5 µg/mL (≈ 0.783 µM)
MIC [15]: 32 µg/mL (≈ 50.1 µM)
MIC [16]: 32 µg/mL (≈ 50.1 µM)
MIC [17]: 32 µg/mL (≈ 50.1 µM)
MIC [18]: 8 µg/mL (≈ 12.5 µM)
MIC [19]: 4 µg/mL (≈ 6.26 µM)
MIC [20]: 4 µg/mL (≈ 6.26 µM)
MIC [21]: 16 µg/mL (≈ 25 µM)
MIC [22]: 0.5 µg/mL (≈ 0.783 µM)
MIC [23]: 64 µg/mL (≈ 100 µM)
MIC [24]: 16 µg/mL (≈ 25 µM)
MIC [25]: 64 µg/mL (≈ 100 µM)
MIC [26]: 32 µg/mL (≈ 50.1 µM)
MIC [27]: 16 µg/mL (≈ 25 µM)

Further lines, results first:

logD [1]: 1.27
SMILES: Cc1ccc(-n2c(=S)sc3c(=O)n(CC(=O)NCC(O)(Cn4cncn4)c4ccc(F)cc4F)cnc32)cc1 (stereo not drawn)

logD [1]: 1.16
SMILES: O=C(Cn1cnc2c(sc(=S)n2-c2ccc(Cl)cc2)c1=O)NCC(O)(Cn1cncn1)c1ccc(F)cc1F (stereo not drawn)

logD [1]: 0.79
SMILES: O=C(Cn1cnc2c(sc(=S)n2-c2ccc(F)cc2)c1=O)NCC(O)(Cn1cncn1)c1ccc(F)cc1F (stereo not drawn)
